Patent US20040197341A1, “Therapeutic process for p. aeruginosa infections using macrolide antibiotics” (priority 2004, published 2004)

Experiments:
[1] = in vivo; cited from earlier work
C4-HSL = experiment: Production of C4-HSL autoinducer, specific bioassay of ethyl acetate extracts of supernatants; assay type: cell-based, P. aeruginosa; details: 2 μg/ml, LB medium, 12 hours, strain PAO1
Method: (§1) P. aeruginosa strain PAO1 was grown in LB medium for 12 hours either in the absence or presence of 2 μg/ml of azithromycin. The formed 3-oxo-C12—HSL and C4—HSL autoinducers were extracted from the supernatants of both cultures with ethyl acetate and their respective concentrations were measured using specific bioassays (Pearson, J. P., Pesci, E. C., Iglewski, B. H., J. Bacteriol. 1997, 179, 3127-3132; Seed, P. C, Passador, L., Iglewski, B. H., J. Bacteriol. 1995, 177, 654-659). The results are plotted in FIG. 3 a). In the presence of the macrolide the concentrations of 3-oxo-C12-HSL and C4-HSL were reduced by 94 and 72%, respectively.

[2] = tested on: P. aeruginosa strain PAO1; experiment: Growth curves (optical density at 660 nm) in the elastase production experiment; assay type: cell-based; details: 2 μg/ml, broth medium, 16 hours
Method: P. aeruginosa strain PAO1 was grown over a total of 16 hours in broth medium either without azithromycin or with 2 μg/ml azithromycin. Samples of the supernatants of both cultures were taken in intervals of 4 hours and the activity of elastase in the samples was determined using elastin Congo red assays (Pearson, J. P., Pesci, E. C., Iglewski, B. H., J. Bacteriol. 1997, 179, 5756-5767). The measured elastase activity was plotted against the sampling times, giving FIG. 1b).

[3] = tested on: P. aeruginosa strain PAO1; experiment: Qualitative rhamnolipid plate assay on M9-based agar with azithromycin gradient; assay type: cell-based; details: gradient from 0 μg/ml to 20 μg/ml in agar
Method: P. aeruginosa strain PAO1 was grown on M9-based agar plates (Siegmund, I., Wagner, F., Biotechnol. Tech. 1991, 5, 265-268) into which a gradient of azithromycin from 0 μg/ml to 20 μg/ml was incorporated. The qualitative Rhamnolipid® plate assay was used.

[4] = tested on: P. aeruginosa strain PAO1; experiment: Cell growth of P. aeruginosa PAO1 in LB medium (turbidity at 660 nm) and SDS-PAGE of total protein extracts; assay type: cell-based
Method: P. aeruginosa strain PAO1 was grown for a total of 10 hours on Luria-Bertani (LB) medium containing 2, 3, 4 and 5 μg/ml of azithromycin, respectively. The cell growth in the media was measured by optical absorbance measurements (turbidity) at 660 nm in intervals of 2 h.

rhlAB operon = experiment: rhlA'-lacZ reporter (pECP60) expression of the rhlAB operon, beta-Gal activity, with growth curves; assay type: cell-based, P. aeruginosa; details: 2 μg/ml, LB medium, 16 hours
Method: P. aeruginosa strain PAO1, harbouring the fusion gene pECP60 of rhlA′ with the lacZ reporter (Pesci, E. C., Pearson, J. P., Seed, P. C., Iglewski, B. H., J. Bacteriol. 1997, 179, 3127-3132), was grown for 16 hours in LB medium either in the absence or presence of 2 μg/ml azithromycin and the activity of β-galactosidase (β-Gal) (Miller, J. H., “Experiments in Molecular Genetics”, p. 352-355. Cold Spring Harbor Laboratory, Cold Spring Harbor, N.Y.) was measured in both cultures in intervals of 4 hours. The results of 6 experiments (mean±SD) for each culture were plotted against sampling time (FIG. 1c).

3-oxo-C12-HSL = experiment: Production of 3-oxo-C12-HSL autoinducer, specific bioassay of ethyl acetate extracts of supernatants; assay type: cell-based, P. aeruginosa; details: 2 μg/ml, LB medium, 12 hours, strain PAO1
Method: as §1

[5] = tested on: lasR, rhlR, lasI and rhlI genes; experiment: lacZ reporter fusions of lasR, rhlR, lasI, rhlI, beta-Gal activity; assay type: cell-based, P. aeruginosa; details: 2 μg/ml azithromycin, 10 h
Method: Cultures of P. aeruginosa strain PAO1, harbouring the fusion gene of lasR′ with lacZ reporter (pPCS10011; Pesci, E. C., Pearson, J. P., Seed, P. C., Iglewski, B. H., J. Bacteriol. 1997, 179, 3127-3132), or the fusion gene of rhlR′ with lacZ (pPCS1002; ibid.), or the fusion gene of lasI′ with lacZ (pPCS223; Van Delden, C., Pesci, E. C., Pearson, J. P., Iglewski, B. H., Infect. Immun. 1998, 66, 4499-4502), or the fusion gene of rhlI′ with lacZ (pLPRI; ibid.) were grown for 10 h in broth medium either in the absence or presence of 2 μg/ml azithromycin and the β-Gal activity was then determined. The results for lasR and rhlR are shown in FIG. 2a) and for lasI and rhlI in FIG. 2b) (plotted bars are the mean ±SD of 6 individual experiments each).

C4-HSL autoinducer = details: 50 μg of erythromycin/ml; cited from earlier work
P. aeruginosa strains = details: clinical trials; cited from earlier work
[6] = 2 μg of azithromycin/ml, LB medium, strain PAO1

SMILES: CC[C@H]1OC(=O)[C@H](C)[C@@H](O[C@H]2C[C@@](C)(OC)[C@@H](O)[C@H](C)O2)[C@H](C)[C@@H](O[C@@H]2O[C@H](C)C[C@H](N(C)C)[C@H]2O)[C@](C)(O)C[C@@H](C)CN(C)[C@H](C)[C@@H](O)[C@]1(C)O [azithromycin]
- distribution between body tissues and serum/plasma [1]: tends to accumulate in body tissues
- reduction of C4-HSL concentration (C4-HSL): 72%
- influence on the growth (optical density at 660 nm) [2]: no significant influence
- growth on rhamnolipid plates [3]: without a parallel drop in growth
- production of rhamnolipids [3]: progressively decreased
- effect on exponential growth [4, 6]: slightly affected
- effect on the stationary growth phase [4, 6]: no effect
- inhibition of PAO1 ([4]; in vitro concentration 2 μg/ml): does not inhibit PAO1
- influence on the growth (optical density at 660 nm) (rhlAB operon): no significant influence
- reduction of 3-oxo-C12-HSL concentration (3-oxo-C12-HSL): 94%
- restoration of lasI expression by co-addition of exogenous autoinducers ([5]; 10 μM exogenous autoinducers): could not restore
- effect on lasR and rhlR expression on co-adding exogenous 3-oxo-C12-HSL and C4-HSL ([5]; autoinducers 10 μM each): almost completely compensated

SMILES: CC[C@H]1OC(=O)[C@H](C)[C@@H](O[C@H]2C[C@@](C)(OC)[C@@H](O)[C@H](C)O2)[C@H](C)[C@@H](O[C@@H]2O[C@H](C)C[C@H](N(C)C)[C@H]2O)[C@](C)(O)C[C@@H](C)C(=O)[C@H](C)[C@@H](O)[C@]1(C)O [erythromycin]
- autoinducer production (C4-HSL autoinducer): reduction

SMILES: CC[C@H]1OC(=O)[C@H](C)[C@@H](O[C@H]2C[C@@](C)(OC)[C@@H](O)[C@H](C)O2)[C@H](C)[C@@H](O[C@@H]2O[C@H](C)C[C@H](N(C)C)[C@H]2O)[C@](C)(OC)C[C@@H](C)C(=O)[C@H](C)[C@@H](O)[C@]1(C)O [clarithromycin]
- effect on the viability of the microorganism (P. aeruginosa strains): no effect
